Laboratory results taken from PubChem BioAssay (NCI).
“And” between values parts separate entries of the source, which are not always exact repeats. Equal entries are not always repeated.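 Protocol summary: plate cells (96-well), add compound at 5 concentrations, incubate 48 h, interpolate endpoints linearly. GI50 is the concentration that inhibits growth by half. TGI is the concentration that stops growth completely.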

Test system: M14 melanoma
Assay: DTP human tumour cell line panel, 48 h

SMILES | GI50 | TGI
CCN1CCN(C(c2ccc(C(F)(F)F)cc2)c2ccc3cccnc3c2O)CC1 (configuration not stated) | 1.7 µM | 5.87 µM
CC(C)=CC/C=C(/C)[C@H]1CC[C@]2(C)[C@@H]1CC[C@@H]1[C@@]3(C)CCCNC(C)(C)[C@@H]3CC[C@]12C | 3.46 µM | 13.8 µM
O=C1c2cccc(NCCCNCCO)c2C(=O)c2cccc(NCCCNCCO)c21 |  | 4.3 µM and 8.78 µM
N#CC(=C1C=CC(=NO)C=C1)c1ccccc1 | 1.74 µM | 4.36 µM
CCCCCCCCCCCCCC1=NC(C)(C)CN1C(C)C | 1.72 µM | 3.09 µM
CC(C)=CCNc1ncnc2c1ncn2C1OC(CO)C(O)C1O (configuration not stated) | 2.85 µM | > 766 µM
COc1ccc(CN2C(=O)/C(=C\C(=O)c3ccc(OCCN4CCCCC4)cc3)c3ccccc32)cc1 | 1.83 µM | 3.85 µM
CCC(C)n1ncn(-c2ccc(N3CCN(c4ccc(OCC5COC(Cn6cncn6)(c6ccc(Cl)cc6Cl)O5)cc4)CC3)cc2)c1=O (configuration not stated) | 5.91 µM | > 100 µM
NC(=O)NC1C(c2ccccc2)=C1c1ccccc1 |  | 39.4 µM
O=C(CNc1ccc(Cl)cc1)Nc1ccc(-c2nc3ccccc3s2)cc1 | 2.1 µM | 5.15 µM
CCCCCCCCCCCCOC1C(C(COC2OC(C3COC(C)(C)O3)C3OC(C)(C)OC23)NC(=O)Nc2ccc(C(=O)O)cc2)OC2OC(C)(C)OC21 (configuration not stated) | 2.45 µM | 6.71 µM
CCN(CC)CCC(CNc1ccnc2cc(Cl)ccc12)c1ccc(OC)cc1 (configuration not stated) | 1.86 µM and 1.88 µM | 3.61 µM and 3.73 µM
C=C1C(=O)OC2CCN3CC=C(COC(=O)C(C)(O)C4(CO4)C1C)C23 (configuration not stated) |  | > 100 µM
CS(=O)(=O)Nc1ccc2c(c1)oc(=O)c1ccccc12 |  | > 100 µM

Test system: SNB-75 CNS
Assay: DTP human tumour cell line panel, 48 h

SMILES | GI50 | TGI
C=COCCCOc1ccccc1 | > 100 µM | > 100 µM
COc1cc2nc(-c3ccc(Cl)cc3)cc(OCCCN3CCCCC3)c2cc1OC | 1.98 µM | 6.19 µM
C=C(c1nc2ccc(Cl)cc2[nH]c1=O)C(O)c1ccc(C(O)C(=O)c2nc3ccc(Cl)cc3[nH]c2=O)cc1 (configuration not stated) |  | > 100 µM
O=c1c2sc(=S)n(-c3ccc(F)cc3)c2ncn1Cc1ccc(F)cc1F | 94 µM | > 100 µM
O=C1NC(=O)C(c2cnc3ccccn23)=C1c1cn2c3c(cc(F)cc13)CN(C(=O)N1CCCCC1)CC2 |  | 46.3 µM
Clc1nc2ccccc2nc1CI | 9.39 µM | 30.1 µM
Cn1nc(N)c2cc([C@@H]3Nc4ccc5[nH]ncc5c4[C@H]4C5CCC(C5)[C@@H]34)ccc21 (some centres not stated) | 0.152 µM | 3.27 µM
O=C(O)C1C2C=CC(O2)C1C(=O)NCc1ccccn1 (configuration not stated) |  | > 100 µM
O=C(OC(CNc1cc(=O)n(Cc2ccccc2)c(=O)n1Cc1ccccc1)CN1CCCC1)c1ccccc1 (configuration not stated) | 16.5 µM | > 100 µM
CCN(CC)CCCC(CNc1ccnc2cc(Cl)ccc12)c1ccc(Cl)cc1 (configuration not stated) | 1.58 µM and 1.4 µM | 3.18 µM and 2.85 µM
CCOC(=O)CCCn1c(SC)nc2[nH]cc(-c3ccccc3)c2c1=O | 15.1 µM | 40.1 µM
CCN(CC)CCOc1ccc(-c2nc3cc(Cl)ccc3s2)cc1 | 1.21 µM | 2.65 µM
CNC(=O)N(C)N=NCCCl |  | > 100 µM
CCN1CCN(C(c2ccc(C(F)(F)F)cc2)c2ccc3cccnc3c2O)CC1 (configuration not stated) | 1.84 µM | 17 µM
CC(C)=CC/C=C(/C)[C@H]1CC[C@]2(C)[C@@H]1CC[C@@H]1[C@@]3(C)CCCNC(C)(C)[C@@H]3CC[C@]12C | 2.56 µM | 10.8 µM
O=C1c2cccc(NCCCNCCO)c2C(=O)c2cccc(NCCCNCCO)c21 | 0.912 µM and 2.44 µM | 2.58 µM and 6.58 µM
N#CC(=C1C=CC(=NO)C=C1)c1ccccc1 | 2.14 µM | 8.99 µM
CCCCCCCCCCCCCC1=NC(C)(C)CN1C(C)C | 1.64 µM | 3 µM
CC(C)=CCNc1ncnc2c1ncn2C1OC(CO)C(O)C1O (configuration not stated) | 2.52 µM | 55.9 µM
COc1ccc(CN2C(=O)/C(=C\C(=O)c3ccc(OCCN4CCCCC4)cc3)c3ccccc32)cc1 | 12.8 µM | 27.6 µM
CCC(C)n1ncn(-c2ccc(N3CCN(c4ccc(OCC5COC(Cn6cncn6)(c6ccc(Cl)cc6Cl)O5)cc4)CC3)cc2)c1=O (configuration not stated) | 11.4 µM | 71.2 µM
O=C(CNc1ccc(Cl)cc1)Nc1ccc(-c2nc3ccccc3s2)cc1 | 3.39 µM | 14.8 µM
CCCCCCCCCCCCOC1C(C(COC2OC(C3COC(C)(C)O3)C3OC(C)(C)OC23)NC(=O)Nc2ccc(C(=O)O)cc2)OC2OC(C)(C)OC21 (configuration not stated) | 2.47 µM | 10.8 µM
CCN(CC)CCC(CNc1ccnc2cc(Cl)ccc12)c1ccc(OC)cc1 (configuration not stated) | 3.39 µM and 2.35 µM | 17.3 µM and 7.84 µM
CS(=O)(=O)Nc1ccc2c(c1)oc(=O)c1ccccc12 |  | > 100 µM

Test system: MCF7 breast
Assay: DTP human tumour cell line panel, 48 h

SMILES | GI50 | TGI
C=COCCCOc1ccccc1 | > 100 µM | > 100 µM
COc1cc2nc(-c3ccc(Cl)cc3)cc(OCCCN3CCCCC3)c2cc1OC | 1.55 µM | 4.11 µM
C=C(c1nc2ccc(Cl)cc2[nH]c1=O)C(O)c1ccc(C(O)C(=O)c2nc3ccc(Cl)cc3[nH]c2=O)cc1 (configuration not stated) |  | > 100 µM
O=c1c2sc(=S)n(-c3ccc(F)cc3)c2ncn1Cc1ccc(F)cc1F | 67.7 µM | > 100 µM
COc1cc(C#CC(=O)OC/C=C/c2ccc3c(c2)OCO3)cc(OC)c1OC |  | 64.8 µM
O=C1NC(=O)C(c2cnc3ccccn23)=C1c1cn2c3c(cc(F)cc13)CN(C(=O)N1CCCCC1)CC2 | < 0.01 µM | 21.1 µM
Clc1nc2ccccc2nc1CI | 2.79 µM | 11.9 µM
Cn1nc(N)c2cc([C@@H]3Nc4ccc5[nH]ncc5c4[C@H]4C5CCC(C5)[C@@H]34)ccc21 (some centres not stated) | 0.327 µM | 18.4 µM
O=C(O)C1C2C=CC(O2)C1C(=O)NCc1ccccn1 (configuration not stated) |  | > 100 µM
O=C(OC(CNc1cc(=O)n(Cc2ccccc2)c(=O)n1Cc1ccccc1)CN1CCCC1)c1ccccc1 (configuration not stated) | > 100 µM | > 100 µM
CCN(CC)CCCC(CNc1ccnc2cc(Cl)ccc12)c1ccc(Cl)cc1 (configuration not stated) | 1.31 µM and 1.24 µM | 3.15 µM and 2.71 µM
CCOC(=O)CCCn1c(SC)nc2[nH]cc(-c3ccccc3)c2c1=O | 18.4 µM | 76.6 µM
CCN(CC)CCOc1ccc(-c2nc3cc(Cl)ccc3s2)cc1 | 1.45 µM | 2.83 µM
CNC(=O)N(C)N=NCCCl |  | > 100 µM
CCN1CCN(C(c2ccc(C(F)(F)F)cc2)c2ccc3cccnc3c2O)CC1 (configuration not stated) | 3.46 µM | 14.9 µM
CC(C)=CC/C=C(/C)[C@H]1CC[C@]2(C)[C@@H]1CC[C@@H]1[C@@]3(C)CCCNC(C)(C)[C@@H]3CC[C@]12C | 2 µM | 3.92 µM
O=C1c2cccc(NCCCNCCO)c2C(=O)c2cccc(NCCCNCCO)c21 |  | 1.41 µM
N#CC(=C1C=CC(=NO)C=C1)c1ccccc1 | 0.319 µM | 11.6 µM
CCCCCCCCCCCCCC1=NC(C)(C)CN1C(C)C | 1.67 µM | 3.13 µM
CC(C)=CCNc1ncnc2c1ncn2C1OC(CO)C(O)C1O (configuration not stated) | 0.624 µM | 12.3 µM
COc1ccc(CN2C(=O)/C(=C\C(=O)c3ccc(OCCN4CCCCC4)cc3)c3ccccc32)cc1 | 1.85 µM | 4.6 µM
CCC(C)n1ncn(-c2ccc(N3CCN(c4ccc(OCC5COC(Cn6cncn6)(c6ccc(Cl)cc6Cl)O5)cc4)CC3)cc2)c1=O (configuration not stated) | 22.2 µM | > 100 µM
NC(=O)NC1C(c2ccccc2)=C1c1ccccc1 |  | 33.6 µM
O=C(CNc1ccc(Cl)cc1)Nc1ccc(-c2nc3ccccc3s2)cc1 | 0.0697 µM | 6.5 µM
CCCCCCCCCCCCOC1C(C(COC2OC(C3COC(C)(C)O3)C3OC(C)(C)OC23)NC(=O)Nc2ccc(C(=O)O)cc2)OC2OC(C)(C)OC21 (configuration not stated) | 2.84 µM | 10.8 µM
CCN(CC)CCC(CNc1ccnc2cc(Cl)ccc12)c1ccc(OC)cc1 (configuration not stated) | 4.98 µM and 4.5 µM | 21.1 µM and 17.9 µM
C=C1C(=O)OC2CCN3CC=C(COC(=O)C(C)(O)C4(CO4)C1C)C23 (configuration not stated) |  | > 100 µM
CS(=O)(=O)Nc1ccc2c(c1)oc(=O)c1ccccc12 |  | > 100 µM
